± gives the expanded uncertainty stated by the source.
Experiments:
[1] = xn = mol fraction of the nth substance listed; details: 101 kPa, Liquid; for mass density: Vibrating tube method; for speed of sound: Pulse-echo method
[2] = molar heat capacity at constant pressure; xn = mol fraction of the nth substance listed; details: 101 kPa, Liquid, Small sample (50 mg) DSC

Structure (SMILES): COC(=O)OC [dimethyl carbonate] + CCCCCCCC
- mass density ([1]; 288.15 K, x1 = 0.05047): 715.14 ± 0.27 kg/m3
- mass density ([1]; 288.15 K, x1 = 0.1072): 725.36 ± 0.27 kg/m3
- mass density ([1]; 288.15 K, x1 = 0.1969): 743.56 ± 0.29 kg/m3
- mass density ([1]; 288.15 K, x1 = 0.2958): 766.42 ± 0.31 kg/m3
- mass density ([1]; 288.15 K, x1 = 0.4018): 794.6 ± 0.34 kg/m3
- mass density ([1]; 288.15 K, x1 = 0.5011): 825 ± 0.38 kg/m3
- mass density ([1]; 288.15 K, x1 = 0.5974): 858.8 ± 0.4 kg/m3
- mass density ([1]; 288.15 K, x1 = 0.699): 900.18 ± 0.42 kg/m3
- mass density ([1]; 288.15 K, x1 = 0.7982): 947.83 ± 0.45 kg/m3
- mass density ([1]; 288.15 K, x1 = 0.8992): 1005.83 ± 0.49 kg/m3
- mass density ([1]; 288.15 K, x1 = 0.949): 1038.95 ± 0.52 kg/m3
- mass density ([1]; 293.15 K, x1 = 0.05047): 710.88 ± 0.27 kg/m3
- mass density ([1]; 293.15 K, x1 = 0.1072): 721.13 ± 0.27 kg/m3
- mass density ([1]; 293.15 K, x1 = 0.1969): 739.1 ± 0.29 kg/m3
- mass density ([1]; 293.15 K, x1 = 0.2958): 761.79 ± 0.31 kg/m3
- mass density ([1]; 293.15 K, x1 = 0.4018): 789.7 ± 0.34 kg/m3
- mass density ([1]; 293.15 K, x1 = 0.5011): 819.9 ± 0.38 kg/m3
- mass density ([1]; 293.15 K, x1 = 0.5974): 853.5 ± 0.4 kg/m3
- mass density ([1]; 293.15 K, x1 = 0.699): 894.47 ± 0.42 kg/m3
- mass density ([1]; 293.15 K, x1 = 0.7982): 941.92 ± 0.45 kg/m3
- mass density ([1]; 293.15 K, x1 = 0.8992): 999.55 ± 0.49 kg/m3
- mass density ([1]; 293.15 K, x1 = 0.949): 1032.56 ± 0.52 kg/m3
- speed of sound ([1]; 298.15 K, x1 = 0.05047): 1165 ± 1.4 m/s
- speed of sound ([1]; 298.15 K, x1 = 0.1072): 1158.1 ± 1.4 m/s
- speed of sound ([1]; 298.15 K, x1 = 0.1969): 1148.9 ± 1.4 m/s
- speed of sound ([1]; 298.15 K, x1 = 0.2958): 1141.5 ± 1.4 m/s
- speed of sound ([1]; 298.15 K, x1 = 0.4018): 1136.1 ± 1.4 m/s
- speed of sound ([1]; 298.15 K, x1 = 0.5011): 1133.7 ± 1.4 m/s
- speed of sound ([1]; 298.15 K, x1 = 0.5974): 1134.2 ± 1.5 m/s
- speed of sound ([1]; 298.15 K, x1 = 0.699): 1138.7 ± 1.5 m/s
- speed of sound ([1]; 298.15 K, x1 = 0.7982): 1149.1 ± 1.5 m/s
- speed of sound ([1]; 298.15 K, x1 = 0.8992): 1167.7 ± 1.6 m/s
- speed of sound ([1]; 298.15 K, x1 = 0.949): 1180.9 ± 1.6 m/s
- mass density ([1]; 298.15 K, x1 = 0.05047): 706.69 ± 0.27 kg/m3
- mass density ([1]; 298.15 K, x1 = 0.1072): 716.89 ± 0.27 kg/m3
- mass density ([1]; 298.15 K, x1 = 0.1969): 734.68 ± 0.29 kg/m3
- mass density ([1]; 298.15 K, x1 = 0.2958): 757.15 ± 0.31 kg/m3
- mass density ([1]; 298.15 K, x1 = 0.4018): 784.9 ± 0.34 kg/m3
- mass density ([1]; 298.15 K, x1 = 0.5011): 814.8 ± 0.38 kg/m3
- mass density ([1]; 298.15 K, x1 = 0.5974): 848.1 ± 0.39 kg/m3
- mass density ([1]; 298.15 K, x1 = 0.699): 888.77 ± 0.42 kg/m3
- mass density ([1]; 298.15 K, x1 = 0.7982): 935.98 ± 0.45 kg/m3
- mass density ([1]; 298.15 K, x1 = 0.8992): 993.3 ± 0.49 kg/m3
- mass density ([1]; 298.15 K, x1 = 0.949): 1026.12 ± 0.51 kg/m3
- mass density ([1]; 308.15 K, x1 = 0.05047): 698.46 ± 0.27 kg/m3
- mass density ([1]; 308.15 K, x1 = 0.1072): 708.37 ± 0.28 kg/m3
- mass density ([1]; 308.15 K, x1 = 0.1969): 725.85 ± 0.29 kg/m3
- mass density ([1]; 308.15 K, x1 = 0.2958): 747.86 ± 0.31 kg/m3
- mass density ([1]; 308.15 K, x1 = 0.4018): 775.1 ± 0.33 kg/m3
- mass density ([1]; 308.15 K, x1 = 0.5011): 804.5 ± 0.37 kg/m3
- mass density ([1]; 308.15 K, x1 = 0.5974): 837.3 ± 0.39 kg/m3
- mass density ([1]; 308.15 K, x1 = 0.699): 877.52 ± 0.41 kg/m3
- mass density ([1]; 308.15 K, x1 = 0.7982): 924.07 ± 0.44 kg/m3
- mass density ([1]; 308.15 K, x1 = 0.8992): 980.86 ± 0.48 kg/m3
- mass density ([1]; 308.15 K, x1 = 0.949): 1013.24 ± 0.51 kg/m3
- molar heat capacity at constant pressure ([2]; 288.15 K, x1 = 0.05306): 245.12 ± 4.9 J/K/mol
- molar heat capacity at constant pressure ([2]; 288.15 K, x1 = 0.1016): 240.86 ± 4.8 J/K/mol
- molar heat capacity at constant pressure ([2]; 288.15 K, x1 = 0.2012): 232.99 ± 4.7 J/K/mol
- molar heat capacity at constant pressure ([2]; 288.15 K, x1 = 0.2999): 225.81 ± 4.5 J/K/mol
- molar heat capacity at constant pressure ([2]; 288.15 K, x1 = 0.4012): 219.02 ± 4.4 J/K/mol
- molar heat capacity at constant pressure ([2]; 288.15 K, x1 = 0.4549): 215.27 ± 4.3 J/K/mol
- molar heat capacity at constant pressure ([2]; 288.15 K, x1 = 0.5037): 211.61 ± 4.2 J/K/mol
- molar heat capacity at constant pressure ([2]; 288.15 K, x1 = 0.5561): 207.58 ± 4.2 J/K/mol
- molar heat capacity at constant pressure ([2]; 288.15 K, x1 = 0.6482): 199.24 ± 4 J/K/mol
- molar heat capacity at constant pressure ([2]; 288.15 K, x1 = 0.7075): 192.93 ± 3.9 J/K/mol
- molar heat capacity at constant pressure ([2]; 288.15 K, x1 = 0.7982): 182.94 ± 3.7 J/K/mol
- molar heat capacity at constant pressure ([2]; 288.15 K, x1 = 0.8484): 177.49 ± 3.5 J/K/mol
- molar heat capacity at constant pressure ([2]; 288.15 K, x1 = 0.9493): 167.98 ± 3.4 J/K/mol
- molar heat capacity at constant pressure ([2]; 298.15 K, x1 = 0.05306): 248.71 ± 5 J/K/mol
- molar heat capacity at constant pressure ([2]; 298.15 K, x1 = 0.1016): 244.21 ± 4.9 J/K/mol
- molar heat capacity at constant pressure ([2]; 298.15 K, x1 = 0.1496): 240.18 ± 4.8 J/K/mol
- molar heat capacity at constant pressure ([2]; 298.15 K, x1 = 0.2012): 235.89 ± 4.7 J/K/mol
- molar heat capacity at constant pressure ([2]; 298.15 K, x1 = 0.2999): 228.26 ± 4.6 J/K/mol
- molar heat capacity at constant pressure ([2]; 298.15 K, x1 = 0.4012): 220.47 ± 4.4 J/K/mol
- molar heat capacity at constant pressure ([2]; 298.15 K, x1 = 0.4549): 216.32 ± 4.3 J/K/mol
- molar heat capacity at constant pressure ([2]; 298.15 K, x1 = 0.5037): 212.23 ± 4.2 J/K/mol
- molar heat capacity at constant pressure ([2]; 298.15 K, x1 = 0.5561): 207.88 ± 4.2 J/K/mol
- molar heat capacity at constant pressure ([2]; 298.15 K, x1 = 0.6482): 199.37 ± 4 J/K/mol
- molar heat capacity at constant pressure ([2]; 298.15 K, x1 = 0.7982): 183.94 ± 3.7 J/K/mol
- molar heat capacity at constant pressure ([2]; 298.15 K, x1 = 0.8484): 178.74 ± 3.6 J/K/mol
- molar heat capacity at constant pressure ([2]; 298.15 K, x1 = 0.9493): 169.06 ± 3.4 J/K/mol
- molar heat capacity at constant pressure ([2]; 308.15 K, x1 = 0.05306): 252.62 ± 5 J/K/mol
- molar heat capacity at constant pressure ([2]; 308.15 K, x1 = 0.1016): 248.11 ± 5 J/K/mol
- molar heat capacity at constant pressure ([2]; 308.15 K, x1 = 0.1496): 243.91 ± 4.9 J/K/mol
- molar heat capacity at constant pressure ([2]; 308.15 K, x1 = 0.2012): 239.35 ± 4.8 J/K/mol
- molar heat capacity at constant pressure ([2]; 308.15 K, x1 = 0.2999): 231.22 ± 4.6 J/K/mol
- molar heat capacity at constant pressure ([2]; 308.15 K, x1 = 0.4012): 222.77 ± 4.5 J/K/mol
- molar heat capacity at constant pressure ([2]; 308.15 K, x1 = 0.4549): 218.33 ± 4.4 J/K/mol
- molar heat capacity at constant pressure ([2]; 308.15 K, x1 = 0.5037): 213.92 ± 4.3 J/K/mol
- molar heat capacity at constant pressure ([2]; 308.15 K, x1 = 0.5561): 209.21 ± 4.2 J/K/mol
- molar heat capacity at constant pressure ([2]; 308.15 K, x1 = 0.5998): 205.31 ± 4.1 J/K/mol
- molar heat capacity at constant pressure ([2]; 308.15 K, x1 = 0.6482): 200.7 ± 4 J/K/mol
- molar heat capacity at constant pressure ([2]; 308.15 K, x1 = 0.7982): 185.39 ± 3.7 J/K/mol
- molar heat capacity at constant pressure ([2]; 308.15 K, x1 = 0.8484): 180.34 ± 3.6 J/K/mol
- molar heat capacity at constant pressure ([2]; 308.15 K, x1 = 0.8969): 175.52 ± 3.5 J/K/mol
- molar heat capacity at constant pressure ([2]; 308.15 K, x1 = 0.9493): 170.5 ± 3.4 J/K/mol
